In patent US7015345B2, “Propionic acid derivatives” (Asahi Kasei Pharma Corporation, priority 2002, dated 2006):
Read-outs that look alike come from different tables or passages of the source.

What was measured:
Zucker rats = assay: Liver triglyceride contents in Zucker rats; assay type: in vivo; settings: Rattus norvegicus, 336 h, read-out: Triglyceride reducing rate (%); for inhibition in vivo at 1 mg/kg: 1 mg/kg once a day for 2 weeks
Protocol: Measurement of Liver Triglyceride Contents in Zucker Rats
To Zucker rats, a vehicle (0.5% MC), a compound of the present invention or fenofibrate (Sigma) was administered once a day for 2 weeks. The livers were isolated on the next day of the final administration, and amounts of triglyceride in the livers were determined. Triglyceride was extracted by adding 5 ml of a mixture of hexane and isopropanol (2:1, V/V) to 100 mg of liver, homogenizing the liver using Polytron homogenizer, then sufficiently stirring and centrifuging the homogenate at 2000 g for 10 minutes at room temperature. The amount of triglyceride in the solution layer was measured.

[1] = system: hamsters fed with high cholesterol diet; assay: Total plasma cholesterol and non-HDL cholesterol reducing action in hamster fed high cholesterol diet; assay type: in vivo; settings: Mesocricetus auratus, 192 h, hamsters on high cholesterol diet, 10 mg/kg oral once a day for one week, plasma on 8th day
Protocol: Test for Measuring Total Plasma Cholesterol Reducing Action and Non-HDL Cholesterol (VLDL Cholesterol+LDL Cholesterol) Reducing Action in Hamster
A test compound (10 mg/kg) was administered once a day for one week to hamsters fed with high cholesterol diet (CE-2 (Clea Japan)+1% cholesterol+10% coconut oil) for five days. The plasma cholesterol level and the plasma HDL cholesterol level were measured immediately before the start of the administration of the test sample or vehicle on the 1st day, and the hamsters were divided into groups so that the groups gave no significant value of initial levels of the both measurements. Each of the test samples was dissolved in a 0.5% methylcellulose (MC) solution and orally administered. A 0.5% methylcellulose (MC) solution was orally administered to the hamsters as a vehicle control group. A blood sample was collected on the 8th day, and the plasma cholesterol level and the plasma HDL cholesterol level were measured. The total cholesterol reducing rate was obtained by using the following equation. [formula]
Further, non-HDL cholesterol level (LDL cholesterol level+VLDL cholesterol level) was calculated as (Total cholesterol level−HDL cholesterol level), and the reducing rate thereof was calculated by using the following equation. [formula]

db/db mice = assay: Hypoglycemic action and triglyceride-decreasing action in db/db mice; assay type: in vivo; settings: Mus musculus, 360 h; for inhibition in vivo at 10 mg/kg: 10 mg/kg oral once a day for 2 weeks; for inhibition in vivo at 1 mg/kg: 1 mg/kg oral once a day for 2 weeks; for inhibition in vivo at 3 mg/kg: 3 mg/kg oral once a day for 2 weeks
Protocol: Test for Measuring Hypoglycemic Action and Triglyceride-Decreasing Action in db/db Mice
Each of test compounds was administered once a day for 2 weeks to db/db mice genetically presenting pathological conditions of obesity, hyperglycemia, and hyperlipidemia. Blood was collected from the mice immediately before the start of administration of a test sample or a vehicle on the first day. Plasma glucose levels and triglyceride levels were measured, and the mice were divided into groups so that average glucose levels and triglyceride levels gave no significant value among the groups. All the test samples were suspended in a 0.5% methylcellulose (MC) solution and orally administered. For a vehicle-administered control group, a 0.5% MC solution was orally administered. Blood samples were collected from the mice on the 15th day, and plasma glucose levels and triglyceride levels were measured. A hypoglycemic rate and triglyceride-reducing rate were calculated by using the following equations.

[2] = system: 3T3-L1 precursor adipocytes; assay: Triglyceride accumulation in adipocytes; assay type: cell-based; settings: Mus musculus, 100 nM compound, 4 to 5 days culture, relative to 10 μM rosiglitazone taken as 100%, read-out: Amount of accumulated triglyceride (%)
Protocol: (§1) Test for Uptake of Glucose By Adipocytes and Test for Triglyceride Accumulation in Adipocytes
Further, 3T3-L1 precursor adipocytes were cultured for 4 to 5 days in the presence of a test compound, and then the amount of triglyceride in the cells was measured according to the method of Shibata T et al. (Eur. J. Pharmacol., 364 (2–3), 211–219, 1999). The amount of accumulated triglyceride provided after the treatment with 100 nM of each compound was measured, and represented as a relative value based on the amount of accumulated triglyceride provided after the treatment with 10 μM rosiglitazone, which was taken as 100%.

[3] = system: 3T3-L1 precursor adipocytes; assay: Uptake of glucose by adipocytes ([3H]-2-deoxy-glucose uptake); assay type: cell-based; settings: Mus musculus, 100 nM compound, 4 to 5 days culture, 100 nM insulin stimulation, relative to 10 μM rosiglitazone taken as 100%, read-out: Amount of glucose uptake (%)
Protocol: as §1
According to the method of Mukherjee et al. (Mol. Endocrinol, 14, 1425–1433, 2000), a glucose uptake experiment was performed by using cultured cells. 3T3-L1 precursor adipocytes were cultured for 4 to 5 days in the presence of a test compound, and then stimulated with 100 nM insulin, and then the amount of [^3H]-2-deoxy-glucose (2DG) uptake by the cells was measured. The amount of glucose uptake provided after the treatment with 100 nM of each compound was measured, and represented as a relative value based on the amount of glucose uptake provided after the treatment with 10 μM rosiglitazone, which was taken as 100%.

[4] = non-HDL = total cholesterol - HDL cholesterol, read-out: Non-HDL cholesterol reducing rate (%)
[5] = read-out: Total cholesterol reducing rate (%)
[6] = plasma glucose on 15th day vs vehicle, read-out: Hypoglycemic rate (%)
[7] = plasma triglyceride on 15th day vs vehicle, read-out: Triglyceride reducing rate (%)

SMILES	inhibition in vivo at 10 mg/kg (Zucker rats; 10 mg/kg once a day for 2 weeks) [%]	inhibition in vivo at 10 mg/kg [1, 4] [%]	inhibition in vivo at 10 mg/kg [1, 5] [%]	inhibition in vivo at 10 mg/kg (db/db mice; [6]) [%]	inhibition in vivo at 10 mg/kg (db/db mice; [7]) [%]	Emax at 0.1 µM [2] [%]	Emax at 0.1 µM [3] [%]	inhibition in vivo at 1 mg/kg (Zucker rats) [%]	inhibition in vivo at 1 mg/kg (db/db mice; [6]) [%]	inhibition in vivo at 1 mg/kg (db/db mice; [7]) [%]	inhibition in vivo at 3 mg/kg (db/db mice; [6]) [%]	inhibition in vivo at 3 mg/kg (db/db mice; [7]) [%]	inhibition in vivo at 100 mg/kg (Zucker rats; 100 mg/kg once a day for 2 weeks) [%]
CCCCCCCN(CCOc1ccc(CC(OCC)C(=O)O)cc1)C(=O)Nc1ccc(F)cc1F (stereo not drawn) [Example 2, 3-(4-{2-[3-(2,4-difluorophenyl)-1-heptylureido]ethoxy}phenyl)-2-ethoxypropionic acid]	19	29	30	34	53	90	95						
CCCCCCCN(CCOc1ccc(CC(OCC)C(=O)O)cc1)C(=O)OC (stereo not drawn) [Example 56, 2-ethoxy-3-{4-[2-(N-heptyl-N-methoxycarbonylamino)ethoxy]phenyl}propionic acid]		40	39			85	90	42	26	49			
CCCCCCCN(CCOc1ccc(CC(OCC)C(=O)O)cc1)C(=O)OCc1ccccc1 (stereo not drawn) [Example 57, 3-{4-[2-(N-benzyloxycarbonyl-N-heptylamino)ethoxy]phenyl}-2-ethoxypropionic acid]		43	41			75	80	41			35	46	
CCCCCCCN(CCOc1ccc(CC(OCC)C(=O)O)cc1)C(=O)OCCC (stereo not drawn) [Example 59, 2-ethoxy-3-{4-[2-(N-heptyl-N-propoxycarbonylamino)ethoxy]phenyl}propionic acid]		35	37			77	88	40			18	21	
CCCCCCCN(CCOc1ccc(CC(OCC)C(=O)O)cc1)C(=O)OC(C)C (stereo not drawn) [Example 66, 2-ethoxy-3-{4-[2-(N-heptyl-N-isopropyloxycarbonylamino)ethoxy]phenyl}propionic acid]		42	40			80	95	44	32	57			
C#CCOC(=O)N(CCCCCCC)CCOc1ccc(CC(OCC)C(=O)O)cc1 (stereo not drawn) [Example 67, 2-ethoxy-3-(4-{2-[N-heptyl-N-(2-propynyloxycarbonyl)amino]ethoxy}phenyl)propionic acid]		32	34			92	91	47	17	26			
CCCCCCCN(CCOc1ccc(CC(OCC)C(=O)O)cc1)C(=O)OCC(C)C (stereo not drawn) [Example 71, 2-ethoxy-3-{4-[2-(N-heptyl-N-isobutyloxycarbonylamino)ethoxy]phenyl}propionic acid]		10	12			85	83	28	28	40			
C=CCCOC(=O)N(CCCCCCC)CCOc1ccc(CC(OCC)C(=O)O)cc1 (stereo not drawn) [Example 73, 3-(4-{2-[N-(3-butenyloxycarbonyl)-N-heptylamino]ethoxy}phenyl)-2-ethoxypropionic acid]		45	45			96	99	34			30	43	
CC(C)OC(=O)C(C)(C)Oc1ccc(C(=O)c2ccc(Cl)cc2)cc1 [Fenofibrate, fenofibrate, reference compound]													22
